What was measured:
[1] = in vivo; cited from earlier work
pulmonary tuberculosis = conditions: given alone; cited from earlier work
latent tuberculosis = conditions: taken daily for 9 months; cited from earlier work
tuberculosis bacteria = conditions: treated for 3 days, versus untreated sample; cited from earlier work
[2] = Finger stick blood sugar after insulin; assay type: in vivo, human; conditions: 10 minutes after 5-10 units subcutaneously or IV
Procedure: Blood sugar was tested by using finger stick. We administered 5-10 units of homolog (rapid acting) insulin subcutaneously or IV slowly depending on the blood sugar levels. The glucose was checked 10 minutes later. It has dropped to ±40 mg %.

[3] = system: MCF-7 Human Breast Cancer Cells; conditions: insulin with methotrexate; cited from earlier work
[4] = 2 mg/kg; amikacin 450 mg/kg; cited from earlier work
M. tuberculosis = conditions: added to or substituted in isoniazid, rifampicin and pyrazinamide triple therapy; cited from earlier work
[5] = system: Mycobacterium tuberculosis growth; conditions: cited from earlier work

[H]/N=C(/N)N[C@H]1[C@H](O)[C@@H](O)[C@H](O[C@@H]2O[C@@H](C)[C@](O)(C=O)[C@H]2O[C@@H]2O[C@@H](CO)[C@H](O)[C@@H](O)[C@@H]2NC)[C@@H](N/C(N)=N\[H])[C@@H]1O [Streptomycin]
ADVERSE EVENT/CONTRAINDICATION [1]: Deafness, Contraindicated during pregnancy
immediate mortality (pulmonary tuberculosis): dramatic reduction in immediate mortality

NNC(=O)c1ccncc1 [isoniazid, Isoniazid]
ADVERSE EVENT/CONTRAINDICATION [1]: Peripheral neuropathy
reduction of the risk of active TB (latent tuberculosis): ≤ 90%
intracellular levels of ferrous ions (tuberculosis bacteria): up to ten times higher

insulin: hormone produced in beta cells of pancreas, large polypeptide of A and B chains
blood glucose by finger stick [2]: ~40 mg %
enhancement of the activity of methotrexate [3]: 10,000 times

CCOC(=O)C1=C[C@]2(CC)CCCN3CCc4c(n1c1ccccc41)[C@@H]32 [Vinpocetine]
hearing loss [4]: prevented hearing loss

COc1nc2ccc(Br)cc2cc1[C@@H](c1ccccc1)[C@@](O)(CCN(C)C)c1cccc2ccccc12 [R-207910, Bedaquiline]
effectiveness of treatment (M. tuberculosis): increased the effectiveness

Capreomycin
adverse effects stated in the text [1]: nephrotoxicity and 8th cranial auditory vestibular nerve toxicity
concentration inhibiting growth [5]: 2.5 µg/mL

Reference: patent US20160074480A1, “INNOVATIVE METHODS OF TREATMENTING TUBERCULOSIS” (priority 2015, published 2016)
